Results on three molecules are retold here after ChEMBL document CHEMBL6134802, “A benzoxazolyl urea inhibits VraS and enhances antimicrobials against vancomycin intermediate-resistant Staphylococcus aureus” (Bioorg Med Chem Lett, 2025).

Data set [1] deals with Staphylococcus aureus. The data set can be described thus: Antibacterial activity against methicillin-resistant Staphylococcus aureus BAA-2094 assessed as enhancement factor at 50 uM in presence of vancomycin (reference value: 2 ug/ml). The data set is classed as functional.
Data set [2] deals with Staphylococcus aureus. The experiment in a line: Suppression of oxacillin-induced vraSR gene transcription in vancomycin-intermediate resistant Staphylococcus aureus Mu50 assessed as decrease in vraSR transcript level by RT-qPCR analysis. The format is functional, organism-based.
Data set [3] deals with Staphylococcus aureus. The experiment in a line: Antibacterial activity against vancomycin-intermediate resistant Staphylococcus aureus Mu50 assessed as fold reduction at 50 uM in presence of penicillin G. The format is functional.
The target in data set [4] is T1, Sensor protein VraS (Staphylococcus aureus (strain N315)) (UniProt Q99SZ7).
T1 sequence (whole entry): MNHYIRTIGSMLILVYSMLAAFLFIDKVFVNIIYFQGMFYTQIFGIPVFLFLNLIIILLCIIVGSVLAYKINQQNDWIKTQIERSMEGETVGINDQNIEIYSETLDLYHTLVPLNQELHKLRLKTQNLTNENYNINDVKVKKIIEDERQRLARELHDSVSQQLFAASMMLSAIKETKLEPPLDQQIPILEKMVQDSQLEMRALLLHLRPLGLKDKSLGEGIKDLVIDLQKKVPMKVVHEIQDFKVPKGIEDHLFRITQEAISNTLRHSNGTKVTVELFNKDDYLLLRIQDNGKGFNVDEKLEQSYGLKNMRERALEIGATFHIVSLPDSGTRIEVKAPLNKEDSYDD
The data set can be described thus: Inhibition of GST tagged VraS ATPase activity in vancomycin-intermediate resistant Staphylococcus aureus assessed as residual activity at 0.1 to 300 uM by kinase-coupled assay relative to control. The settings on record: dose 0.1-300 µM.

For data set [5], the system named is Staphylococcus aureus. The experiment in a line: Antibacterial activity against methicillin-resistant Staphylococcus aureus BAA 41 assessed as enhancement factor at 50 uM in presence of oxacillin (reference value: 256 ug/ml). The data set is classed as functional.
Data set [6] concerns Staphylococcus aureus. The data set can be described thus: Antibacterial activity against methicillin-resistant Staphylococcus aureus BAA-1683 assessed as enhancement factor at 50 uM in presence of oxacillin (reference value: 32 ug/ml). The data set is classed as functional.
Data set [7] relates to Staphylococcus aureus. The experiment in a line: Antibacterial activity against methicillin-resistant Staphylococcus aureus USA 300 assessed as fold reduction at 50 uM in presence of vancomycin. The data set is classed as functional.
For data set [8], the system named is Staphylococcus aureus. The data set can be described thus: Synergistic antibacterial activity against vancomycin-intermediate resistant Staphylococcus aureus Mu50 assessed as fractional inhibitory concentration index at […] in presence of vancomycin by checkerboard assay. The data set is classed as functional.
Data set [9] deals with Staphylococcus aureus. The experiment in a line: Antibacterial activity against methicillin-resistant Staphylococcus aureus ATCC 33592 assessed as enhancement factor at 50 uM in presence of vancomycin (reference value: 2 ug/ml). The data set is classed as functional.
Data set [10] deals with Staphylococcus aureus. The experiment in a line: Antibacterial activity against vancomycin-intermediate resistant Staphylococcus aureus Mu50 assessed as enhancement factor at 50 uM in presence of oxacillin (reference value: 256 ug/ml). The format is functional.
Data set [11] has as its system Staphylococcus aureus. The data set can be described thus: Antibacterial activity against methicillin-resistant Staphylococcus aureus USA 300 assessed as fold reduction at 50 uM in presence of Chloramphenicol. The data set is classed as functional.
Data set [12] concerns Staphylococcus aureus. The data set can be described thus: Synergistic antibacterial activity against vancomycin-intermediate resistant Staphylococcus aureus Mu50 assessed as microbial growth at 50 uM in presence of penicillin G at 4 ug/ml by checkerboard assay. The data set is classed as functional, organism-based.
In data set [13] the test system is Staphylococcus aureus. The data set can be described thus: Suppression of oxacillin-induced mecA gene transcription in vancomycin-intermediate resistant Staphylococcus aureus Mu50 assessed as decrease in mecA transcript level by RT-qPCR analysis. The data set is classed as functional, organism-based.
For data set [14], the system named is Staphylococcus aureus. The data set can be described thus: Synergistic antibacterial activity against vancomycin-intermediate resistant Staphylococcus aureus Mu50 assessed as fractional inhibitory concentration index at >400 times MIC in presence of penicillin G by checkerboard assay. The data set is classed as functional.
Data set [15] relates to Staphylococcus aureus. The experiment in a line: Antibacterial activity against vancomycin-intermediate resistant Staphylococcus aureus Mu50 assessed as enhancement factor at 50 uM in presence of penicillin G (reference value: 16 ug/ml). The data set is classed as functional.
For data set [16], the system named is Staphylococcus aureus. The experiment in a line: Antibacterial activity against methicillin-resistant Staphylococcus aureus ATCC 33592 assessed as fold reduction at 50 uM in presence of vancomycin. The data set is classed as functional.
In data set [17] the test system is Staphylococcus aureus. The data set can be described thus: Suppression of vancomycin-induced pbp2 gene transcription in vancomycin-intermediate resistant Staphylococcus aureus Mu50 assessed as decrease in pbp2 transcript level by RT-qPCR analysis. The data set is classed as functional, organism-based.
Data set [18] relates to Staphylococcus aureus. The data set can be described thus: Antibacterial activity against vancomycin-intermediate resistant Staphylococcus aureus Mu50 assessed as enhancement factor at 50 uM in presence of Chloramphenicol (reference value: 16 ug/ml). The format is functional.
Data set [19] deals with Staphylococcus aureus. The data set can be described thus: Antibacterial activity against methicillin-resistant Staphylococcus aureus ATCC 33592 assessed as fold reduction at 50 uM in presence of oxacillin (reference value: 128 ug/ml). The data set is classed as functional.
Data set [20] relates to Staphylococcus aureus. The experiment in a line: Antibacterial activity against methicillin-resistant Staphylococcus aureus BAA 42 assessed as enhancement factor at 50 uM in presence of vancomycin (reference value: 1 ug/ml). The data set is classed as functional.
The test system of data set [21] is Staphylococcus aureus. The experiment in a line: Antibacterial activity against methicillin-resistant Staphylococcus aureus USA 300 assessed as enhancement factor at 50 uM in presence of penicillin G (reference value: 128 ug/ml). The format is functional.
The test system of data set [22] is Staphylococcus aureus. The experiment in a line: Synergistic antibacterial activity against vancomycin-intermediate resistant Staphylococcus aureus Mu50 assessed as fractional inhibitory concentration index at >400 times MIC in presence of oxacillin by checkerboard assay. The format is functional.
Data set [23] has as its system Staphylococcus aureus. The experiment in a line: Suppression of vancomycin-induced mecA gene transcription in vancomycin-intermediate resistant Staphylococcus aureus Mu50 assessed as decrease in mecA transcript level by RT-qPCR analysis. The format is functional, organism-based.
Data set [24] deals with Staphylococcus aureus. The experiment in a line: Antibacterial activity against methicillin-resistant Staphylococcus aureus USA 300 assessed as enhancement factor at 50 uM in presence of oxacillin (reference value: 16 ug/ml). The data set is classed as functional.
The test system of data set [25] is Staphylococcus aureus. The experiment in a line: Suppression of vancomycin-induced vraSR gene transcription in vancomycin-intermediate resistant Staphylococcus aureus Mu50 assessed as decrease in vraSR transcript level by RT-qPCR analysis. The data set is classed as functional, organism-based.
The test system of data set [26] is Staphylococcus aureus. The experiment in a line: Antibacterial activity against methicillin-resistant Staphylococcus aureus BAA 42 assessed as enhancement factor at 50 uM in presence of oxacillin (reference value: 64 ug/ml). The format is functional.
Data set [27] has as its system Staphylococcus aureus. The data set can be described thus: Antibacterial activity against methicillin-resistant Staphylococcus aureus USA 300 assessed as enhancement factor at 50 uM in presence of vancomycin (reference value: 2 ug/ml). The data set is classed as functional.
For data set [28], the system named is Staphylococcus aureus. The data set can be described thus: Synergistic antibacterial activity against vancomycin-intermediate resistant Staphylococcus aureus Mu50 assessed as microbial growth at 50 uM in presence of oxacillin at 2 to 4 ug/ml by checkerboard assay. The format is functional, organism-based.
The test system of data set [29] is Staphylococcus aureus. The experiment in a line: Antibacterial activity against vancomycin-intermediate resistant Staphylococcus aureus Mu50 assessed as enhancement factor at 50 uM in presence of vancomycin (reference value: 4 ug/ml). The format is functional.
Data set [30] relates to Staphylococcus aureus. The data set can be described thus: Antibacterial activity against methicillin-resistant Staphylococcus aureus BAA-2094 assessed as enhancement factor at 50 uM in presence of oxacillin (reference value: 8 to 16 ug/ml). The format is functional.
Data set [31] deals with Staphylococcus aureus. The data set can be described thus: Antibacterial activity against methicillin-resistant Staphylococcus aureus ATCC 33592 assessed as enhancement factor at 50 uM in presence of oxacillin (reference value: 128 ug/ml). The data set is classed as functional.
The subject of data set [32] is Staphylococcus aureus. The data set can be described thus: Antibacterial activity against vancomycin-intermediate resistant Staphylococcus aureus Mu50 assessed as fold reduction at 50 uM in presence of vancomycin. The format is functional.
In data set [33] the test system is Staphylococcus aureus. The experiment in a line: Synergistic antibacterial activity against vancomycin-intermediate resistant Staphylococcus aureus Mu50 assessed as microbial growth at 50 uM in presence of vancomycin at 0.125 ug/ml by checkerboard assay. The format is functional, organism-based.
Data set [34] concerns Staphylococcus aureus. The experiment in a line: Antibacterial activity against methicillin-resistant Staphylococcus aureus BAA-1683 assessed as enhancement factor at 50 uM in presence of vancomycin (reference value: 2 ug/ml). The format is functional.
Data set [35] in a line: Cytotoxicity against MDCK cells assessed as reduction in cell viability incubated for 24 hrs by MTT assay. The format is toxicity, cell-based, Canis lupus familiaris. The following applies: dog.
Data set [36] has as its system Staphylococcus aureus. The experiment in a line: Antibacterial activity against vancomycin-intermediate resistant Staphylococcus aureus Mu50 assessed as fold reduction at 50 uM in presence of oxacillin. The format is functional.
Data set [37] deals with Staphylococcus aureus. The data set can be described thus: Suppression of oxacillin-induced pbp2 gene transcription in vancomycin-intermediate resistant Staphylococcus aureus Mu50 assessed as decrease in pbp2 transcript level by RT-qPCR analysis. The format is functional, organism-based.
Data set [38] has as its target T2, Sensor protein VraS (Staphylococcus aureus (strain N315), UniProt Q99SZ7).
T2 sequence (Q99SZ7 whole entry): T1 sequence (whole entry)
The experiment in a line: Inhibition of GST tagged VraS ATPase activity in vancomycin-intermediate resistant Staphylococcus aureus by kinase-coupled assay.

The test system of data set [39] is Staphylococcus aureus. The experiment in a line: Antibacterial activity against methicillin-resistant Staphylococcus aureus BAA 41 assessed as enhancement factor at 50 uM in presence of vancomycin (reference value: 2 ug/ml). The format is functional.
Data set [40] has as its system Staphylococcus aureus. The data set can be described thus: Antibacterial activity against methicillin-resistant Staphylococcus aureus USA 300 assessed as enhancement factor at 50 uM in presence of Chloramphenicol (reference value: 2 ug/ml). The format is functional.
Data set [41] deals with Staphylococcus aureus. The data set can be described thus: Antibacterial activity against methicillin-resistant Staphylococcus aureus USA 300(BAA-1556) assessed as fold reduction in presence of vancomycin. The data set is classed as functional.

Activity calls are given as the source filed them. The rule behind the calls is not given here.

For `CCSc1nc2ccc(NC(=O)NC(c3cc(C)ccn3)C3CC3)cc2o1` (stereo not given), the minimal inhibitory concentration (MIC) in [1] is 0.5 µg/mL; in data set [5], below 2 µg/mL; in data set [6], below 2 µg/mL; in data set [9], below 0.25 µg/mL; in data set [10], 8 µg/mL; in data set [15], 4 µg/mL. Also, the MIC in data set [18] is 16 µg/mL; in data set [20], below 0.25 µg/mL; in [21], 128 µg/mL; in data set [24], 16 µg/mL; in data set [26] it was below 2 µg/mL; in data set [27], 0.5 µg/mL. Further, the MIC in [29] is 0.25 µg/mL; in data set [30], below 2 µg/mL; in data set [31], below 2 µg/mL; in data set [34], 0.5 µg/mL; in [39] it was 0.25 µg/mL; in data set [40] it was 0.25 µg/mL. Moreover, the outcome in data set [2], in [12], in [13], in [17], in data set [23] and in data set [25] was Active. Further, the outcome in data set [28], in [33] and in [37] was Active. The “fold change (FC)” value in [3] is given as 4; in data set [7] it was 2; in data set [11] it was 4; in data set [16], around 4; in data set [19], 16; in [32] it was 16. In addition, the “fold change (FC)” value was 32 in data set [36] and 4 in data set [41]. For the same molecule, the Activity in data set [4] stood at 35%. The entries for the “fractional inhibitory concentration index (FICI)” value in data set [8], in data set [14] and in data set [22] were below 0.12, “<=0.31” and “<=0.31”, respectively. Also, the half-maximal inhibitory concentration (IC50) at 24 h in data set [35] was above 100000 nM. Moreover, in data set [38], the IC50 was determined as 940 nM.

Take `Cc1ccnc(C(NC(=O)Nc2ccc3c(c2)OCC(=O)N3C)C2CC2)c1` (stereo not given): the MIC in data set [10] stood at 256 µg/mL; in [29], 4 µg/mL.

Take `Cc1ccnc(C(NC(=O)Nc2ccc3nnn(C)c3c2)C2CC2)c1` (stereo not given): the MIC came out at 256 µg/mL in data set [10] and 4 µg/mL in data set [29].
